Test results published in US20210009551A1, “COMPOUNDS AND METHODS FOR TREATING FIBROSIS OR CANCER” (THE REGENTS OF THE UNIVERSITY OF CALIFORNIA, priority 2016, published 2021).

What was measured:
[1] = test system: TGFβ1-induced epithelial-mesenchymal transition (EMT) in A549 adenocarcinoma cells; assay: TGFβ1-induced EMT in A549 cells (image-based screen, immunoblot); assay type: cell-based
Description: High throughput screen and high content imaging analysis. A549 cell-based screening of inhibitors to TGFβ1-induced EMT from a bioactive small molecule library was performed in 384-well plate format and the images were captured and analyzed using GE IN Cell 2000 as described previously^16.
(§1) Immunoblot. Pulverized tissue and cells were lysed in RIP A buffer (150 mM NaCl, 50 mM Tris, pH 8.0, 1% Triton X-100, 0.5% sodium deoxycholate, 0.1% SDS, supplemented with protease and phosphatase inhibitors) and analyzed by immunoblotting. Densitometry was quantified using NIH Imaged software.

[2] = test system: C57BL/6 mice, intratracheal bleomycin; assay: Bleomycin fibrosis model; assay type: in vivo; conditions: daily gavage 100 mg/kg from day 10 after bleomycin, day 21
Description: For histological assessment of lung collagen, frozen sections of the left lung were stained using Masson's Trichrome stain kit (American MasterTech, Lodi, Calif., USA).
Bleomycin fibrosis model. Eight-week old C57BL/6 mice were intratracheally instilled with saline or 1.9 units/kg of bleomycin (Sigma-Aldrich). Mice were implanted with osmotic pumps loaded with ellagic acid salt (24 mg/kg/day, Day 10-Day 17), fed with red raspberry diet (Day 0-Day 21), or gavaged with corilagin (100 mg/kg, Day 10-Day 21). Controls were treated with control pump, control diet, or vehicle in the same formulation. The lungs were lavaged and followed by OCT embedding for imaging or snap freezing in liquid nitrogen for protein extraction or hydroxyproline assay.
Collagen content Lung or aorta collagen content was evaluated using hydroxyproline assay. Briefly, whole left lung tissue or aorta was hydrolyzed in 1 ml 12N HCl at 110° C. for 24 h and the hydroxyproline was detected by incubating with Chloramine T and p-dimethylaminobenzaldehyde and the absorbance was measured at 550 nm. Each sample was run in triplicate. Collagen content in lung or aorta tissues was expressed as micrograms of collagen per lung or aorta and was converted from micrograms of hydroxyproline.

[3] = Plasma level of corilagin, LC/MS analysis; assay type: in vivo, mice; conditions: C57BL/6, mouse, 2 hrs after the last oral dose of 100 mg/kg, day 21, read-out: average circulating level
Description: Plasma level of corilagin—LC/MS analysis. Corilagin in C57BL/6 mice two hours following last oral administration at day 21 was analyzed. Blood samples (˜500 μL/sample) were collected via cardiac puncture. Samples were placed in tubes containing heparin sodium and stored on ice until centrifuged for plasma.

[4] = Bronchoalveolar lavage: immune cells and injury markers; assay type: in vivo; conditions: BALF, bleomycin or saline treated mice
Description: Bronchoalveolar lavage. After the trachea was exposed, a 20-G catheter was inserted into the trachea through a small incision. 1 ml cold PBS was instilled into the mouse lungs followed by gentle aspiration repeated for three times. All the bronchoalveolar lavage fluid (BALF) was centrifuged and cell pellet was re-suspended in erythrocyte (RBC) lysis buffer (Sigma, St. Louis) followed by re-centrifugation. Cell number was counted using hemocytometer. Cell types of BALF were determined by morphology following Diff-quick stain of cytospin slides. About 500 cells were counted for each sample in order to determine the cell types. Macrophages account for more than 80% of the cells in BALF and were collected by centrifugation. After centrifugation, the supernatant was collected to measure total protein content using the BCA assay (Pierce), while the cell pellet was lysed for immunoblotting or RNA isolation.

LOXL2-high A549 cells = assay: Corilagin level in conditioned medium by LC-MS, A549; assay type: in vitro ADME; conditions: 1 μM, 5 hrs
LOXL2-low HaCaT cells = assay: Corilagin level in conditioned medium by LC-MS, HaCaT; assay type: in vitro ADME; conditions: 1 μM, 5 hrs
EGFR = assay: EGF signaling through EGFR (immunoblot); assay type: cell-based; conditions: 1 μM, 6 h pre-treatment, A549 and MDA-MB-231 cells
Description: as §1

[5] = target: T1, wild-type or mutant human LOXL2 (Homo sapiens, UniProt Q9Y4K0); assay: LOX activity of conditioned media from NMuMG cells expressing wild-type or mutant LOXL2; assay type: cell-based; conditions: 1 μM, 6 h, K614N, K759R, all except the K731 mutant
T1 construct: Flag (C); expressed in transfected cells; host or cells: NMuMG cells, conditioned medium
T1 sequence (Q9Y4K0 26-774): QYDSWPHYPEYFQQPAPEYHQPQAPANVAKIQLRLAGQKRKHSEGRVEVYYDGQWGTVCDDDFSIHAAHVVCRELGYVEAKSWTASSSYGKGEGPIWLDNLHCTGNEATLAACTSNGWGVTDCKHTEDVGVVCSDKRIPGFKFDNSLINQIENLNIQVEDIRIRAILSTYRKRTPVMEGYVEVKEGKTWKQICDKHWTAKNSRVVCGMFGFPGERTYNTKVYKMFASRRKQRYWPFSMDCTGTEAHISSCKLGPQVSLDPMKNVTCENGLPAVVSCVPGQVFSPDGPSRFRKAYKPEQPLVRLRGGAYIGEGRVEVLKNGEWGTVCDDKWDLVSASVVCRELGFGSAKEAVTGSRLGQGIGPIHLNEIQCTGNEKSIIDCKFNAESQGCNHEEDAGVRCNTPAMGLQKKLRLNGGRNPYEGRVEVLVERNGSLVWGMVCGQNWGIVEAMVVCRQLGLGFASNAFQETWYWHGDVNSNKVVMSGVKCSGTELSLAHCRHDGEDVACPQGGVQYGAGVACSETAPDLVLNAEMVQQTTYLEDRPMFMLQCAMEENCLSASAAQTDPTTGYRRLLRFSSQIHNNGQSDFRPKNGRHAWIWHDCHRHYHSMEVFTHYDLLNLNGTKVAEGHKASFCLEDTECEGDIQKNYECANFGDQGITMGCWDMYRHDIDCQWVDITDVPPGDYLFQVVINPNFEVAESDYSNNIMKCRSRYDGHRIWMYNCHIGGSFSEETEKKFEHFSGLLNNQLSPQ
Description: LOX activity assay LOX activity of recombinant human LOXL2 or conditioned medium collected from cells expressing LOXL2 was measured using a Fluorimetric Lysyl Oxidase Activity Assay Kit (Abeam, Cambridge, Mass.) following a protocol provided by the manufacturer. Briefly, 50 μl of sample was mixed with an equal volume of assay reaction mixture containing LOX substrate, horseradish peroxidase (HRP) and HRP substrate in the presence and absence of testing inhibitors and D-penicillamine (DPA), a LOX inhibitor. The mixture was incubated for 30 min at 37° C. in darkness. The fluorescence increase was then measured with a fluorescence plate reader (BMG Lab Tech FLUOstar) at Ex/Em=540/590 nm. Sample buffer or medium alone without LOXL2 was used for determination of the background fluorescence.
Site-directed mutagenesis of LOXL2. Site-directed mutagenesis was performed to generate K614N, K731R, and K759R point mutations using Phusion Site-Directed Mutagenesis Kit (Thermo Scientific, Waltham, Mass.) according to manufacturer's instructions. A pcDNA3-hLOXL2-flag plasmid containing the cDNA fragment of wild-type human LOXL2 fused with a flag tag at the C-terminus, was used as the template DNA^18. Mutations were confirmed by DNA sequencing. […]

Solubility (statement) = assay type: physicochemical
human LOXL2 = target: T2, human LOXL2 (Homo sapiens, UniProt Q9Y4K0); assay: LOXL2-induced stabilization of snail 1 protein in NMuMG cells; assay type: cell-based; parameters: Flag (C); expressed in transfected cells; host or cells: NMuMG cells; conditions: 0.5 μM, 24 h
T2 sequence (Q9Y4K0 26-774): T1 sequence (Q9Y4K0 26-774)
Description: as §1

IC50 ([1]; Homo sapiens, A549 cells stimulated with TGFβ1, 48 h): 50 nM
concentration at 2 h [3]: 80 nM
corilagin concentration in conditioned medium (LOXL2-high A549 cells): decreased dramatically
corilagin concentration in conditioned medium (LOXL2-low HaCaT cells): not
inhibition of LOX activity of wt and point mutant LOXL2 [5]: completely inhibited
solubility (Solubility (statement)): more soluble
LOXL2-induced stabilization of snail 1 protein (human LOXL2): blocked
SMILES: O=C(O[C@@H]1O[C@@H]2COC(=O)c3cc(O)c(O)c(O)c3-c3c(cc(O)c(O)c3O)C(=O)O[C@H]([C@H]1O)[C@@H]2O)c1cc(O)c(O)c(O)c1 [corilagin, Corilagin]
inhibitory effects on EMT after knockdown of LOXL2 ([1]; LOXL2 RNAi, A549 cells, 1 μM): completely abrogated
bleomycin-induced total lung collagen, fibronectin, snail 1, and p-smad3 [2]: marked attenuation
immune cell numbers or markers of injury [4]: no effect
EGF signaling through EGFR (EGFR): no effect
